What was measured:
[1] = tested on: Tobacco Calli cells transformed with the Hygromycin B phosphotransferase gene; assay: LD 50 for resistant cells; conditions: for LD 50 for different impurities for resistant cells: isolated impurities added to media
[2] = tested on: 293 cells transformed with the Hygromycin B phosphotransferase gene; assay: LD 50 for resistant cells; conditions: resistant 293 cells; for LD 50 for different impurities for resistant cells: isolated impurities added to media
Tobacco Calli cells = assay: LD 50 hygromycin B concentration for sensitive cells; type: cell-based
Escherichia Coli = assay: as above; type: cell-based
resistant cells = conditions: comparison between batches / impurities
293 cell = assay: LD 50 hygromycin B concentration for sensitive cells; type: cell-based; conditions: sensitive 293 cell
Fungi cell = assay: as above; type: cell-based

Compound | LD 50 for different impurities for resistant cells [1] [µg/mL] | LD 50 for different impurities for resistant cells [2] [µg/mL] | LD 50 hygromycin B concentration for resistant cells ([1]; hygromycin B batches) [µg/mL] | LD 50 hygromycin B concentration for sensitive cells (Tobacco Calli cells) [µg/mL] | LD 50 hygromycin B concentration for resistant cells ([2]; hygromycin B batches) [µg/mL] | LD 50 hygromycin B concentration for sensitive cells (Escherichia Coli) [µg/mL] | toxicity to resistant cells (in words) (resistant cells) | LD 50 hygromycin B concentration for sensitive cells (293 cell) [µg/mL] | LD 50 hygromycin B concentration for sensitive cells (Fungi cell) [µg/mL]
NC1CC(N)C(O)C(OCC(O)C(O)C(O)C(O)CO)C1O (centres unmarked) [Impurity D] | 0.5 | 1.7 |  |  |  |  |  |  | 
Destomic acid [Impurity A] | 193 | 240 |  |  |  |  |  |  | 
CN[C@H]1C[C@@H](N)[C@H](O)[C@@H](O[C@@H]2O[C@H](CO)[C@H](O)[C@@H]3OC4(O[C@H]23)O[C@H]([C@@H](N)CO)[C@H](O)[C@H](O)[C@H]4O)[C@@H]1O (some centres unmarked) [Batch T-94, hygromycin B] |  |  | 490 | 4.7 | 394 | 8.2 | lower toxicity to resistant cells | 8.5 | 14.2

Source: patent US20120231448A1, “LOW CELL TOXICITY […]” (priority 2011, published 2012)
